These results are taken from US6451334B2, “Compositions and administration of compositions for the treatment of blood disorders” (priority 1997, dated 2002).

The test system of data set [1] is K562 cells. Briefly: Treatment of K562 cells and analysis of globin mRNA by primer extension. It counts as cell-based, human. Particulars: for fold induction at 1000 µM: Homo sapiens, K562, 72 h, read-out: increase in γ-globin mRNA over constitutive levels in untreated control K562 cells; for stimulating γ globin compared to control cells (ranking in words) / Radioactivity Alpha Globin (α) mRNA / Radioactivity Fetal Globin (γ) mRNA / γ/α: K562 cells; for Radioactivity Alpha Globin (α) mRNA / Radioactivity Fetal Globin (γ) mRNA: phosphorimager; for γ/α: ratio of globin mRNA radioactivity. As to the method:
K562 cells kindly provided by Dr. George Atweh were cultured with 10% fetal bovine serum (Sigma, St. Louis, Mo.) and RPMI media (Grand Island Biological Company, Grand Island, N.Y.) in a humidified atmosphere with 5% CO2/95% air. Compounds were tested at a final concentration of 1 mM at neutral pH and included butyric acid, phenoxyacetic acid, dimethylbutric acid, alpha-methylhydrocionamic acid, 2,3, and 4-methoxyhydrocinnamic acid, dihydrocinnamic acid, methoxycinnamic acid, methoxyacetic acid, phenylpropionic acid, amino hydrocinnamic acid, DL β- and DL-βamino-n-butyric acid, cinnamic acid, and 2 methylhydrocinnamic acid (Aldrich Chemical Company, St. Louis, Mo.). Additional compounds studied included dimethylhydroxy acetic acid, dimethylpropionic acid, dimethylphenoxyacetic acid, and dimethylmethoxyacetic acid. After three days of culture with these agents, mRNA was purified and α, β, and γ globin mRNA was analyzed by primer extension using oligonucleotide primers and quantitation on a PhosphoImager as previously described.

In data set [2] the test system is 32D cells. The data set can be described thus: Proliferation studies using 32D cells at low IL-3. It is filed as cell-based, murine. Particulars: 32D cells, low IL-3 (0.5 U/ml), FIG. 7. As for the experimental part:
32D cells were cultured in RPMI media with 10% fetal bovine serum (Sigma, St. Louis, Mo.), […] glutamine (GIBCO), and murine IL3 (20 U/ml) (Biosource International). Growth factor controls used included the standard concentration of IL-3 required for proliferation of these cells (25 U/ml) and a 50-fold lower concentration (0.5 U/ml), and erythropoietin (3 U/ml) or G-CSF ( U/ml), (Amgen, Thousand Oaks, Calif.). The test compounds were added at final concentrations of 1 mM. As a cell density of 2.5−10×10^5 is necessary for growth of this cell line, this density was maintained by passing the cells at three day intervals or by concentrating the cells when apoptosis occurred. Proportions of cells which were viable or apoptotic, and the fraction of cells in each part of the cell cycle was assessed by incubating the cells with Trypan blue and enumeration, and with propidium iodide incubation and FACScan analysis as previously described.
The effects of the representative compounds which have been synthesized or selected for resistance to beta oxidative metabolism and glucuronidation in stimulating γ globin gene expression in a human erythroid-like cell line and for their effects on cell growth utilizing a multi-lineage murine hematopoietic cell line, 32D. This cell line is dependent on high concentrations of IL-3 for growth. […]

In data set [3] the test system is mice transgenic for a human beta globin locus YAC containing a silenced gamma globin gene. The data set can be described thus: In vivo experiments in mice transgenic for the human beta globin gene locus. As for the experimental part: Three prototype compounds, methylhydrocinnamic acid (MHCA), phenoxyacetic acid (PAA), and dimethylbutyric acid PMB), were administered at doses from 100 to 250 mg/kg in two daily doses by intraperitoneal injection to mice transgenic for a human beta globin locus YAC containing a silenced gamma globin gene. Reticulocytes, newly synthesized red blood cells, were counted daily and non-alpha globin in MRNA was analyzed by Rnase protection. Only 50 microliters of blood were removed daily for testing. A 5 to 10-fold increase in reticulocytes and a 1.7-2.4 fold increase in gamma globin mRNA was observed within one week of therapy with the three protype compounds. In contrast, control mice to which normal saline was administered, with the same degree of phlebotomy for testing, had no significant changes in reticulocytes or globin in mRNA.

For data set [4], the system named is anemic baboon. The data set can be described thus: Hematopoietic stimulation in an anemic phlebotomized baboon. Particulars: administered for five days, baboon phlebotomized 5% of blood volume daily, FIG. 13. It counts as in vivo. As for the experimental part: An increase in multiple blood cell lineages resulted when a prototype hemokine compound (α methylhydrocinnamic acid) was administered for five days to an anemic baboon, which was being phlebotomized 5% of its blood volume daily.

In data set [5] the test system is Mononuclear cells from patients with sickle cell disease or thalassemia trait. The data set can be described thus: Erythroid colony (BFU-E) cultures in methylcellulose. Particulars: 0.2-0.5 mM, optimal growth factors. It is filed as cell-based, human. As to the method: Mononuclear cells from patients with sickle cell disease or thalassemia trait were isolated on Ficoll Hypague, washed, and cultured in methylcellulose media with optimal concentrations of hematopoietic growth factors IL-3, GM-CSF, Stem Cell Factor, IL6, 3 U/ml Eiythropoietin, insulin, bovine serum albumin, and 0.2-0.5 mM concentrations of test compounds of derivatives of cinnamic acid and hydrocinnamic acid. […] The following illustrates some representative cultures: […]

For data set [6], the system named is system A transport of amino acids. Briefly: System A transport of amino acids. It counts as cell-based. The text has this:
Normal cell viability, the viability of an untransformed or uninfected cell, can be determined from analyzing the effects of the composition on one or more biological processes of the cell. Detrimental interference with one or more of these cellular processes becomes significant when the process becomes abnormal. Examples of quantitatable and qualifiable biological processes include the processes of cell division, protein synthesis, nucleic acid (DNA or RNA) synthesis, nucleic acid (principally DNA) fragmentation and apoptosis. Others processes include specific enzyme activities, the activities of the cellular transportation systems such as the transportation of amino acids by system A (neutral), system B (acidic) or system C (basic), and the expression of a cell surface protein. […] Abnormal cell division, for example, can be mitosis which occurs too rapidly, as in a malignancy, or unstably, resulting in programmed cell death or apoptosis, detected by increased DNA degradation. The determination of abnormal cell viability can be made on comparison with untreated control cells. Compositions preferably increase normal cell viability. Increased cell viability can be determined by those of ordinary skill in the art using, for example, DNA fragmentation analysis. […]

Data set [7] in a line: in vivo. Particulars: monkey, po.
Protocol: (§1) Chronic indwelling venous and arterial catheters which were maintained using sterile technique for blood sampling. Compounds were administered by nasogastric tube and blood was collected to determine drug plasma levels at regular intervals following single oral doses. […] The test compounds were analyzed after ether extraction of the plasma, separation by HPLC, and quantitated by comparison to a spilled internal standard of heptanoic acid according to previously described methods.
Data set [8] deals with thalassemic patients. Briefly: Pulsed arginine butyrate infusion in thalassemic disorders. It is filed as in vivo. Particulars: 4 days with infusions about 8 hours per day, then 7 days of no treatment. As to the method: Individual pulses can be delivered to the patient continuously over a period of several hours, such as about 2, 4, 6, 8, 10, 12, 14 or 16 hours, or several days, such as 2, 3, 4, 5, 6, or 7 days, preferably from about 1 hour to about 24 hours and more preferably from about 3 hours to about 9 hours. Alternatively, periodic doses can be administered in a single bolus or a small number of injections of the composition over a short period of time, typically less than 1 or 2 hours. […] Substantially means that there are positive consequences that raise the patient's standard of living such as, for example, increased activity or mobility, fewer side-effects, fewer hospital stays or visits to the physician, or fewer transfusions.
Compositions administered in pulses have the surprising benefit of reducing the overall load of drug on the patient as the total amount of drug administered can be substantially less than that amount that has been therapeutically administered by conventional continuous therapy. […] Preferably, the therapeutically effective pulsed dose is less than the continuous dose, or less than one half, one third, one quarter, one fifth, one tenth or even one twentieth of the therapeutic continuous dose of the same composition or even less.

Data set [9] is described as follows: In vivo half-life of the composition. As for the experimental part: The interval between pulses or the interval of no delivery is greater than 24 hours and preferably greater than 48 hours, and can be for even longer such as for 3, 4, 5, 6, 7, 8, 9 or 10 days, two, three or four weeks or even longer. As the results achieved may be surprising, the interval between pulses, when necessary, can be determined by one of ordinary skill in the art. Often, the interval between pulses can be calculated by administering another dose of the composition when the composition or the active component of the composition is no longer detectable in the patient prior to delivery of the next pulse. Intervals can also be calculated from the in vivo half-life of the composition. Intervals may be calculated as greater than the in vivo half-life, or 2, 3, 4, 5 and even 10 times greater the composition half-life.

In data set [10] the test system is bone marrow cells. Particulars: continuous intravenous administration; cited from earlier work.
Data set [11] in a line: Pharmacokinetics after single oral doses in human volunteers. It counts as in vivo. Particulars: FIG. 4, in humans, oral doses of 40-500 mg/kg.
Protocol: as §1
Data set [12] can be described thus: Pharmacokinetic studies after single oral doses in baboons. Particulars: monkey, plasma.
Protocol: as §1
Where [13] appears, read: 100 to 250 mg/kg in two daily doses, intraperitoneal, listed as DMB.

“And” between values parts separate entries of the source, which are not always exact repeats. Equal values may be shown once. Read-outs that look alike come from different tables or passages of the source.

Broadly, the half-life is how long it takes for the measured level to halve. A high value points to slow loss. In the case of `CC(Cc1ccccc1)C(=O)O` (stereo not drawn) [ST 7, α-methylhydrocinnamic acid], the fold induction at 1000 µM in data set [1] was in the range of 2.4 to 26. In [1] (1 mM), the “stimulating γ globin compared to control cells (ranking in words)” value is “most active”, the “Radioactivity Alpha Globin (α) mRNA” value was found to be 92979, the “Radioactivity Fetal Globin (γ) mRNA” value was 1648056 and the γ/α stood at 17.7. In addition, in data set [2], the “increase in proliferation over 4 days” value is reported as 5 fold. Moreover, the “Reticulocytes Peak” value in data set [3] (100 to 250 mg/kg in two daily doses, intraperitoneal, listed as MHCA) is 17.9 and 23.3. Further, in [3] (baseline of the treated animal, listed as MHCA), the “Reticulocytes Day 0” value is 2.9 and 2.3. For the same compound, the “blood cell lineages” value in data set [4] is “increase in both white blood cells and total hemoglobin”. The “Mean BFU-E/culture 4 cultures averaged (per 0.2 million cells)” value in [5] amounted to 223. Besides, the “% Increase over control” value in [5] (BFU-E) came to 32.4%. For the same compound, the “system A transport of amino acids” value in [6] is recorded as “do not significantly alter”. Also, in [7], the half-life is 7.6 h.

Consider arginine butyrate [reference compound], for which, in [1] (1 mM), the “Radioactivity Alpha Globin (α) mRNA” value is given as 296132, the “Radioactivity Fetal Globin (γ) mRNA” value is given as 2176523 and the γ/α is given as 7.3. Moreover, the “Fetal hemoglobin levels” value in [8] is on record as “rise substantially”. In data set [9], the half-life is 0.25 h.

`Nc1ncn([C@@H]2O[C@H](CO)[C@@H](O)[C@H]2O)c(=O)n1` [AZA, 5-azacytidine]: the “increase in γ globin mRNA of bone marrow cells” value in data set [10] is recorded as “five- to seven”.

Turning to `CCC(C)(C)C(=O)O` [ST 20, 2,2 dimethylbutyric acid], the fold induction at 1000 µM in [1] (primer extension, 1 mM, three days of culture, FIG. 1) fell in the range of 2.4 to 26. Also, in data set [1] (1 mM), the “stimulating γ globin compared to control cells (ranking in words)” value is given as “most active”, the “Radioactivity Alpha Globin (α) mRNA” value was 178751, the “Radioactivity Fetal Globin (γ) mRNA” value amounted to 1697936 and the γ/α was found to be 9.5. Also, the “time for which plasma levels persisted in the millimolar range” value in [11] is “greater than 6 hours”. Further, in data set [3] (setting [13]), the “Reticulocytes Peak” value is 17.7 and 21.3; the “γ/γ + β mRNA Peak” value was 0.36 and 0.31. Moreover, the “γ/γ + β mRNA Day 0” value in data set [3] (baseline of the treated animal, RNase protection, listed as DMB) is 0.20 and 0.17. The “Reticulocytes Day 0” value in [3] (baseline of the treated animal, listed as DMB) is 2.4 and 4.2. Moreover, in data set [12], the half-life is 6.8 h.
